Results: US12653899B2, “Multi-targeted, tunable, sustained delivery of payloads to charged avascular tissues” (Massachusetts Institute of Technology, priority 2019, dated 2026)

Test system: human ankle cartilage explants treated with IL-1β
Test: IL-1β cytokine challenge model, sGAG biosynthesis rate in human ankle cartilage explants
Assay type: cell-based
Conditions: for rescue of the biosynthesis loss caused by human IL-1β: days 6-8
Protocol: Cartilage was harvested from the ankles of a donor (Collins Grade 1) and a donor (Collins Grade 1). Cartilage explants were equilibrated in culture media for 2 days after harvest. […] These were cut down to 1 mm thickness and allowed to equilibrate for a further 2 days before experiments were set up. Human IL-1β was used to induce osteoarthritis-like changes in cartilage. Experiments were set up to identify IL-1β doses at which 40 nM of free IGF-1 can rescue the IL-1β induced biosynthesis loss in cartilage. A dose response experiment in which single doses of (+9GFP)-(GGGGS)4-(IGF-1) (SEQ ID NO: 7) and (+9GFP)-(EAAAK)3-(IGF-1) (SEQ ID NO: 8) were added along with 100 pg/ml human IL-1β was also set up.
Experimental groups (N=8 to 10 cartilage explants in each group): Untreated control (Ctrl in FIG. 6A and FIG. 6B), 10 pg/mL human IL-1β (10 pg/ml IL-1b in FIG. 6A and FIG. 6B), 10 pg/mL human IL-1β+40 nM IGF-1 (10 pg/ml IL-1b+40 nM IGF-1 in FIG. 6A and FIG. 6B), 100 pg/mL human IL-1β (100 pg/ml IL-1b in FIG. 6A and FIG. 6B), 100 pg/mL human IL-1β+40 nM IGF-1 (100 pg/ml IL-1b+40 nM IGF-1 in FIG. 6A and FIG. 6B), 500 pg/mL human IL-1β (500 pg/ml IL-1b in FIG. 6A and […]), 500 pg/mL human IL-1β+40 nM IGF-1 (500 pg/ml IL-1b+40 nM IGF-1 in FIG. 6A and FIG. 6B), 1000 pg/mL human IL-1β (1 ng/ml IL-1b in FIG. 6A and FIG. 6B), 1000 pg/mL human IL-1β+40 nM IGF-1 (1 ng/ml IL-1b+40 nM IGF-1 in FIG. 6A and FIG. 6B). Media changes were performed every 2 days and the experiment was terminated after 8 days.
Chondrocyte biosynthesis rate (primarily aggrecan synthesis) was measured between days 6 and 8 of the experiment using a 35S-sulfate radiolabel. Statistics: 1-way ANOVA with post-hoc Tukey's HSD test.
This experiment was set up with cartilage explants from the donor ankle. Experimental groups (N=8 to 10 cartilage explants in each group): Untreated control (Ctrl in FIG. 6C), Continuous human IL-1β control (100 pg/ml dose added with every media change) (IL-1b in FIG. 6C), Continuous human IL-1β+continuous free IGF-1 control (100 pg/ml human IL-1β and 40 nM free IGF-1 dose added with every media change) (IL-1b+IGF1 FIG. 6C), Continuous human IL-1β+(+9GFP)-(GGGGS)4-(IGF-1) (SEQ ID NO: 7) 500 nM single dose (100 pg/ml human IL-1β added with every media change; Single 500 nM fusion protein dose added on Day 0) (IL-1b+0.5 μM Flex-1 in FIG. 6C), Continuous human IL-1β+(+9GFP)-(GGGGS)4-(IGF-1) (SEQ ID NO: 7) 1 μM single dose (100 pg/ml human IL-1β added with every media change; Single 1 μM fusion protein dose added on Day 0) (IL-1b+1 μM Flex-1 in FIG. 6C), Continuous human IL-1β+(+9GFP)-(EAAAK)3-(IGF-1) (SEQ ID NO: 8) 500 nM single dose (100 pg/ml human IL-1β added with every media change; Single 500 nM fusion protein dose added on Day 0), Continuous human IL-1β+(+9GFP)-(EAAAK)3-(IGF-1) (SEQ ID NO: 8) 1 μM single dose (100 pg/ml human IL-1β added with every media change; Single 1 μM fusion protein dose added on Day 0) (IL-1b+1 μM Rig-1 in FIG. 6C).
Preliminary dose response experiments were performed to test the effects of human IL-1β (PeproTech, Rocky Hill, NJ) on human ankle cartilage. Ankle cartilage explants from two different donors (equilibrated in culture medium post-harvest) were cultured in serum-free low glucose medium (same composition as equilibration medium) and treated with continuous IL-1β doses ranging from 10 pg/ml to 1 ng/ml for 8 days. The experiments also included groups of explants that were treated with 300 ng/ml free IGF-1 at each dose level of IL-1β. Based on the results of these experiments, 100 pg/ml IL-1β was chosen as the dose used for the fusion protein dose response experiments. In these experiments, ankle and knee cartilage explants (equilibrated in culture medium post-harvest) were treated continuously with IL-1β and received single doses of fusion proteins (ranging from 39.2 nM to 2 μM) at the start of the experiments. […]

[1] = single 2 μM dose, 100 pg/ml IL-1β, 10-day experiment (FIG. 15B)

Row | Substance | rescue of the loss of biosynthesis caused by IL-1β (single 1 μM dose, 100 pg/ml IL-1β, 10-day experiment (FIG. 15B)) | rescue of the loss of biosynthesis caused by IL-1β (single 2 μM dose, 100 pg/ml IL-1β, 7-day experiment (FIG. 15A)) | rescue of the loss of biosynthesis caused by IL-1β [1] | rescue of the biosynthesis loss caused by human IL-1β (40 nM free IGF-1, 100 pg/ml human IL-1β) | rescue of the biosynthesis loss caused by human IL-1β (40 nM free IGF-1, 500 pg/ml and 1000 pg/ml human IL-1β) | biosynthesis rate versus untreated control (300 ng/ml IGF-1 + 10 pg/ml human IL-1β, both donors) | biosynthesis rate versus untreated control (300 ng/ml IGF-1 + 100 pg/ml human IL-1β, both donors) | biosynthesis rate versus untreated control (300 ng/ml IGF-1 + 500 pg/ml or 1 ng/ml human IL-1β, donor) | rescue of biosynthesis loss (continuous free IGF-1 300 ng/ml, 100 pg/ml IL-1β, 7-day and 10-day experiments) | rescue of biosynthesis loss (continuous free IGF-1, human IL-1β 1 ng/ml) | rescue of the biosynthesis loss caused by human IL-1β (both dose levels (single 500 nM and 1 μM), 100 pg/ml human IL-1β, donor) | rescue of the loss of biosynthesis caused by IL-1β (single 1 μM dose, 100 pg/ml IL-1β, 7-day experiment (FIG. 15A))
1 | (+9GFP)-(GGGGS)4-(IGF-1): fusion protein of +9 GFP and human IGF-1 with flexible (GGGGS)4 linker, SEQ ID NO: 7 | partially rescued | completely rescue | partially rescued | – | – | – | – | – | – | – | – | –
2 | IGF-1: free recombinant human IGF-1 (PeproTech), pro-anabolic growth factor used as the positive control | – | – | – | completely rescue | partial rescue | surpassed the untreated control biosynthesis | not statistically significantly different from the untreated control | significantly lower biosynthesis compared to the untreated control | complete rescue | could not rescue | – | –
3 | (+9GFP)-(EAAAK)3-(IGF-1): fusion protein of +9 GFP and human IGF-1 with rigid (EAAAK)3 linker, SEQ ID NO: 8 | – | – | partially rescued | – | – | – | – | – | – | – | able to rescue | partial rescue
